Measurements as given in PubChem BioAssay AID1963442 (Molecular Pharmacology Branch, DTP, NCI, 2024).

System: MPNST complex spheroid with HUVEC/MSC, growth, % test/control
Assay: Anticancer human tumor MPNST cell line growth inhibition [Asc];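 note: compounds left on spheroids for seven days before reading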
Settings: for IC50: curve of first compound; for viability, T/C: stronger effect = lower value
Method in brief: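 Stromal components (HUVEC and hMSC) are co-assembled with the cancer cells into multicellular spheroids. Drugs are then added singly or paired, at concentrations falling by half-log increments from a clinically achievable maximum, capped at 10 microM without known Cmax.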

[1] = second compound 0.1 µM, first compound 0.0316 µM
[2] = second compound 0.1 µM, first compound 0.1 µM
[3] = second compound 0.1 µM, first compound 0.316 µM
[4] = second compound 0.1 µM, first compound 1 µM
[5] = second compound 0.316 µM, first compound 0.0316 µM
[6] = second compound 0.316 µM, first compound 0.1 µM
[7] = second compound 0.316 µM, first compound 0.316 µM
[8] = second compound 0.316 µM, first compound 1 µM
[9] = second compound 1 µM, first compound 0.0316 µM
[10] = second compound 1 µM, first compound 0.1 µM
[11] = second compound 1 µM, first compound 0.316 µM
[12] = second compound 1 µM, first compound 1 µM

Cn1ncnc1[C@H]1c2n[nH]c(=O)c3cc(F)cc(c23)N[C@@H]1c1ccc(F)cc1 + CCN1C(C(=O)NC23CCC(C(=O)O)(CC2)CC3)C(c2cccc(Cl)c2F)C2(C(=O)Nc3cc(Cl)ccc32)C12CCCCC2
IC50 (second compound 0.03 µM): 0.0472 µM | IC50 (second compound 0.0949 µM): > 0.1 µM | IC50 (second compound 0.3 µM): > 0.1 µM | IC50 (second compound 0.949 µM): > 0.1 µM | IC50 (second compound 3 µM): > 0.1 µM | viability, T/C (second compound 0.03 µM, first compound 0.000316 µM): 84.6% | viability, T/C (second compound 0.03 µM, first compound 0.001 µM): 82% | viability, T/C (second compound 0.03 µM, first compound 0.00316 µM): 80.2% | viability, T/C (second compound 0.03 µM, first compound 0.01 µM): 65.9% | viability, T/C (second compound 0.03 µM, first compound 0.0316 µM): 54.4% | viability, T/C (second compound 0.03 µM, first compound 0.1 µM): 43.4% | viability, T/C (second compound 0.0949 µM, first compound 0.000316 µM): 106% | viability, T/C (second compound 0.0949 µM, first compound 0.001 µM): 91.9% | viability, T/C (second compound 0.0949 µM, first compound 0.00316 µM): 97.7% | viability, T/C (second compound 0.0949 µM, first compound 0.01 µM): 95.5% | viability, T/C (second compound 0.0949 µM, first compound 0.0316 µM): 74.9% | viability, T/C (second compound 0.0949 µM, first compound 0.1 µM): 52.1% | viability, T/C (second compound 0.3 µM, first compound 0.000316 µM): 106% | viability, T/C (second compound 0.3 µM, first compound 0.001 µM): 92.9% | viability, T/C (second compound 0.3 µM, first compound 0.00316 µM): 88.4% | viability, T/C (second compound 0.3 µM, first compound 0.01 µM): 91.7% | viability, T/C (second compound 0.3 µM, first compound 0.0316 µM): 91.1% | viability, T/C (second compound 0.3 µM, first compound 0.1 µM): 57.7% | viability, T/C (second compound 0.949 µM, first compound 0.000316 µM): 80.2% | viability, T/C (second compound 0.949 µM, first compound 0.001 µM): 109% | viability, T/C (second compound 0.949 µM, first compound 0.00316 µM): 79.8% | viability, T/C (second compound 0.949 µM, first compound 0.01 µM): 90.6% | viability, T/C (second compound 0.949 µM, first compound 0.0316 µM): 81.2% | viability, T/C (second compound 0.949 µM, first compound 0.1 µM): 70.7% | viability, T/C (second compound 3 µM, first compound 0.000316 µM): 97.1% | viability, T/C (second compound 3 µM, first compound 0.001 µM): 94.3% | viability, T/C (second compound 3 µM, first compound 0.00316 µM): 89.8% | viability, T/C (second compound 3 µM, first compound 0.01 µM): 86.6% | viability, T/C (second compound 3 µM, first compound 0.0316 µM): 73.6% | viability, T/C (second compound 3 µM, first compound 0.1 µM): 72.7%

CCN1CCN(Cc2ccc(Nc3ncc(F)c(-c4cc(F)c5nc(C)n(C(C)C)c5c4)n3)nc2)CC1 + Cc1c(S(C)(=O)=O)c(-c2cc(F)cc(N3CCN(c4ccc(NS(=O)(=O)c5ccc(NC(CCN6CCC(C(=O)OCCCP(=O)(O)O)CC6)CSc6ccccc6)c(S(=O)(=O)C(F)(F)F)c5)cc4)CC3)c2)c(-c2ccc(Cl)cc2)n1C(C)C
IC50 (second compound 0.1 µM): > 1 µM | IC50 (second compound 0.316 µM): > 1 µM | IC50 (second compound 1 µM): > 1 µM | IC50 (second compound 3.16 µM): 1 µM | IC50 (second compound 10 µM): 0.316 µM | viability, T/C (second compound 0.1 µM, first compound 0.00316 µM): 75.8% | viability, T/C (second compound 0.1 µM, first compound 0.01 µM): 72.3% | viability, T/C [1]: 73.7% | viability, T/C [2]: 78.3% | viability, T/C [3]: 55.8% | viability, T/C [4]: 64.5% | viability, T/C (second compound 0.316 µM, first compound 0.00316 µM): 82.8% | viability, T/C (second compound 0.316 µM, first compound 0.01 µM): 54.8% | viability, T/C [5]: 75.6% | viability, T/C [6]: 84.2% | viability, T/C [7]: 53.5% | viability, T/C [8]: 58% | viability, T/C (second compound 1 µM, first compound 0.00316 µM): 76.6% | viability, T/C (second compound 1 µM, first compound 0.01 µM): 78.5% | viability, T/C [9]: 76.9% | viability, T/C [10]: 62.3% | viability, T/C [11]: 53% | viability, T/C [12]: 55.1% | viability, T/C (second compound 3.16 µM, first compound 0.00316 µM): 73.3% | viability, T/C (second compound 3.16 µM, first compound 0.01 µM): 77.9% | viability, T/C (second compound 3.16 µM, first compound 0.0316 µM): 57% | viability, T/C (second compound 3.16 µM, first compound 0.1 µM): 47.6% | viability, T/C (second compound 3.16 µM, first compound 0.316 µM): 56.3% | viability, T/C (second compound 3.16 µM, first compound 1 µM): 47.3% | viability, T/C (second compound 10 µM, first compound 0.00316 µM): 83.5% | viability, T/C (second compound 10 µM, first compound 0.01 µM): 91.4% | viability, T/C (second compound 10 µM, first compound 0.0316 µM): 50.2% | viability, T/C (second compound 10 µM, first compound 0.1 µM): 52.8% | viability, T/C (second compound 10 µM, first compound 0.316 µM): 55.4% | viability, T/C (second compound 10 µM, first compound 1 µM): 47.1%

C=CC(=O)N1CCN(c2nc(=O)n(-c3c(C)ccnc3C(C)C)c3nc(-c4c(O)cccc4F)c(F)cc23)C(C)C1 (configuration not stated) + CNC(C)C(=O)NC1CN(S(=O)(=O)c2cccc(S(=O)(=O)N3CCC4CCC(C(=O)NC(c5ccccc5)c5ccccc5)N4C(=O)C(NC(=O)C(C)NC)C3)c2)CCC2CCC(C(=O)NC(c3ccccc3)c3ccccc3)N2C1=O
IC50 (second compound 0.00316 µM): > 10 µM | IC50 (second compound 0.01 µM): > 10 µM | IC50 (second compound 0.0316 µM): > 10 µM | IC50 (second compound 0.1 µM): > 10 µM | IC50 (second compound 0.316 µM): > 10 µM | IC50 (second compound 1 µM): > 10 µM | viability, T/C (second compound 0.00316 µM, first compound 0.0316 µM): 81.6% | viability, T/C (second compound 0.00316 µM, first compound 0.1 µM): 98.1% | viability, T/C (second compound 0.00316 µM, first compound 0.316 µM): 94.1% | viability, T/C (second compound 0.00316 µM, first compound 1 µM): 102% | viability, T/C (second compound 0.00316 µM, first compound 3.16 µM): 110% | viability, T/C (second compound 0.00316 µM, first compound 10 µM): 128% | viability, T/C (second compound 0.01 µM, first compound 0.0316 µM): 81.2% | viability, T/C (second compound 0.01 µM, first compound 0.1 µM): 101% | viability, T/C (second compound 0.01 µM, first compound 0.316 µM): 84% | viability, T/C (second compound 0.01 µM, first compound 1 µM): 112% | viability, T/C (second compound 0.01 µM, first compound 3.16 µM): 114% | viability, T/C (second compound 0.01 µM, first compound 10 µM): 145% | viability, T/C (second compound 0.0316 µM, first compound 0.0316 µM): 96.1% | viability, T/C (second compound 0.0316 µM, first compound 0.1 µM): 69.1% | viability, T/C (second compound 0.0316 µM, first compound 0.316 µM): 127% | viability, T/C (second compound 0.0316 µM, first compound 1 µM): 109% | viability, T/C (second compound 0.0316 µM, first compound 3.16 µM): 125% | viability, T/C (second compound 0.0316 µM, first compound 10 µM): 185% | viability, T/C [1]: 101% | viability, T/C [2]: 92.7% | viability, T/C [3]: 117% | viability, T/C [4]: 107% | viability, T/C (second compound 0.1 µM, first compound 3.16 µM): 127% | viability, T/C (second compound 0.1 µM, first compound 10 µM): 161% | viability, T/C [5]: 73% | viability, T/C [6]: 79.5% | viability, T/C [7]: 113% | viability, T/C [8]: 106% | viability, T/C (second compound 0.316 µM, first compound 3.16 µM): 115% | viability, T/C (second compound 0.316 µM, first compound 10 µM): 148% | viability, T/C [9]: 98.4% | viability, T/C [10]: 99.9% | viability, T/C [11]: 102% | viability, T/C [12]: 79% | viability, T/C (second compound 1 µM, first compound 3.16 µM): 143% | viability, T/C (second compound 1 µM, first compound 10 µM): 154%
